From ChEMBL document CHEMBL1201862, “PubChem BioAssay data set” (2004)
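Five concentrations, 48 hours, 96-well plates. At the GI50, growth is halved.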 The source made the active and inactive calls. Rule as the data show it: active = GI50 up to about 1.1 µM and inactive = higher.

Tests used:
Assay in all cases: NCI anticancer screen, dose series, 48 h
786-0 = tested on: 786-0
A498 = tested on: A498
A549 = tested on: A549
ACHN = tested on: ACHN
BT-549 = tested on: BT-549
CAKI-1 = tested on: CAKI-1
CCRF-CEM = tested on: CCRF-CEM
COLO 205 = tested on: COLO 205
DU-145 = tested on: DU-145
EKVX = tested on: EKVX
HCC 2998 = tested on: HCC 2998
HCT-116 = tested on: HCT-116
HCT-15 = tested on: HCT-15
HL-60 = tested on: HL-60
HOP-62 = tested on: HOP-62
HOP-92 = tested on: HOP-92
HT-29 = tested on: HT-29
Hs-578T = tested on: Hs-578T
IGROV-1 = tested on: IGROV-1
K562 = tested on: K562
KM12 = tested on: KM12
M14 = tested on: M14
MCF7 = tested on: MCF7
MDA-MB-231 = tested on: MDA-MB-231
MDA-MB-435 = tested on: MDA-MB-435
MDA-N = tested on: MDA-N
MOLT-4 = tested on: MOLT-4
Malme-3M = tested on: Malme-3M
NCI-H226 = tested on: NCI-H226
NCI-H23 = tested on: NCI-H23
NCI-H460 = tested on: NCI-H460
NCI-H522 = tested on: NCI-H522
NCI/ADR-RES = tested on: NCI/ADR-RES
OVCAR-3 = tested on: OVCAR-3
OVCAR-4 = tested on: OVCAR-4
OVCAR-5 = tested on: OVCAR-5
OVCAR-8 = tested on: OVCAR-8
PC-3 = tested on: PC-3
RPMI-8226 = tested on: RPMI-8226
RXF 393 = tested on: RXF 393
SF-268 = tested on: SF-268
SF-295 = tested on: SF-295
SF-539 = tested on: SF-539
SK-MEL-2 = tested on: SK-MEL-2
SK-MEL-5 = tested on: SK-MEL-5
SK-OV-3 = tested on: SK-OV-3
SN12C = tested on: SN12C
SNB-19 = tested on: SNB-19
SNB-75 = tested on: SNB-75
SR = tested on: SR
SW-620 = tested on: SW-620
TK-10 = tested on: TK-10
U-251 = tested on: U-251
UACC-257 = tested on: UACC-257
UACC-62 = tested on: UACC-62
UO-31 = tested on: UO-31

C[C@]12C[C@H](c3ccccc3)Nc3ccccc3N1C(c1ccccc1)=NO2
GI50 (786-0): 60.1 µM (inactive) | GI50 (A498): > 100 µM (inactive) | GI50 (A549): > 100 µM (inactive) | GI50 (ACHN): 64.1 µM (inactive) | GI50 (BT-549): 30.5 µM (inactive) | GI50 (CAKI-1): 64.3 µM (inactive) | GI50 (CCRF-CEM): 67.6 µM (inactive) | GI50 (COLO 205): 78.7 µM (inactive) | GI50 (DU-145): > 100 µM (inactive) | GI50 (EKVX): 21 µM (inactive) | GI50 (HCC 2998): > 100 µM (inactive) | GI50 (HCT-116): 60.8 µM (inactive) | GI50 (HCT-15): 67.9 µM | GI50 (HL-60): 74.6 µM (inactive) | GI50 (HOP-62): > 100 µM (inactive) | GI50 (HOP-92): 30.1 µM (inactive) | GI50 (HT-29): 55.2 µM (inactive) | GI50 (Hs-578T): > 100 µM (inactive) | GI50 (IGROV-1): > 100 µM (inactive) | GI50 (K562): 33.8 µM (inactive) | GI50 (KM12): 61 µM (inactive) | GI50 (M14): 49.2 µM (inactive) | GI50 (MCF7): 52.6 µM (inactive) | GI50 (MDA-MB-231): > 100 µM (inactive) | GI50 (MDA-MB-435): 35.5 µM (inactive) | GI50 (MDA-N): 74.1 µM (inactive) | GI50 (MOLT-4): 24.5 µM (inactive) | GI50 (Malme-3M): 44.3 µM (inactive) | GI50 (NCI-H226): > 100 µM (inactive) | GI50 (NCI-H23): 62.1 µM (inactive) | GI50 (NCI-H460): 49.7 µM (inactive) | GI50 (NCI-H522): > 100 µM (inactive) | GI50 (NCI/ADR-RES): 41.1 µM (inactive) | GI50 (OVCAR-3): 28.5 µM (inactive) | GI50 (OVCAR-4): 52 µM (inactive) | GI50 (OVCAR-5): > 100 µM (inactive) | GI50 (OVCAR-8): 85.7 µM (inactive) | GI50 (PC-3): 40.4 µM (inactive) | GI50 (RPMI-8226): 47.2 µM (inactive) | GI50 (RXF 393): > 100 µM (inactive) | GI50 (SF-268): > 100 µM (inactive) | GI50 (SF-295): 22.5 µM (inactive) | GI50 (SF-539): > 100 µM (inactive) | GI50 (SK-MEL-2): > 100 µM (inactive) | GI50 (SK-MEL-5): 30.1 µM (inactive) | GI50 (SK-OV-3): > 100 µM (inactive) | GI50 (SN12C): > 100 µM (inactive) | GI50 (SNB-19): > 100 µM (inactive) | GI50 (SNB-75): 51.3 µM (inactive) | GI50 (SR): 3.39 µM (inactive) | GI50 (SW-620): > 100 µM (inactive) | GI50 (TK-10): > 100 µM (inactive) | GI50 (U-251): 96.4 µM (inactive) | GI50 (UACC-257): 81.5 µM (inactive) | GI50 (UACC-62): 85.1 µM (inactive) | GI50 (UO-31): 41.4 µM (inactive)
